From patent EP1781807B1, “FLUORESCENCE-BASED KINETIC DETERMINATION OF TRANSGLUTAMINASE ACTIVITY” (N-Zyme BioTec GmbH, priority 2004, dated 2006)
Where a SMILES comes first, the peptide text is derived from it. [ ]: non-standard residue; d: D form. The star is where a group is joined. X1 = O=[N+]([O-])c1ccc(NCCCCCN*)c([N+](=O)[O-])c1; 2Abz = Nc1ccccc1C(=O)O; Ahx = NCCCCCC(=O)O

Legend:
Type in all cases: biochemical
FXIII = target: T1, FXIII (Homo sapiens, UniProt P00488); assay: Kinetic measurement of FXIII in plasma (Beispiel 1); conditions: in Gegenwart von 5 mM Glycinethylester, otherwise identical conditions; 100 µl Citratplasma, 20 NIH Units Thrombin, 37°C, Exc. 310 nm, Em. 427 nm
T1 construct: Kinetische Messung von FXIII in Plasmen; from tissue; host or cells: plasma
T1 sequence (P00488 1-732): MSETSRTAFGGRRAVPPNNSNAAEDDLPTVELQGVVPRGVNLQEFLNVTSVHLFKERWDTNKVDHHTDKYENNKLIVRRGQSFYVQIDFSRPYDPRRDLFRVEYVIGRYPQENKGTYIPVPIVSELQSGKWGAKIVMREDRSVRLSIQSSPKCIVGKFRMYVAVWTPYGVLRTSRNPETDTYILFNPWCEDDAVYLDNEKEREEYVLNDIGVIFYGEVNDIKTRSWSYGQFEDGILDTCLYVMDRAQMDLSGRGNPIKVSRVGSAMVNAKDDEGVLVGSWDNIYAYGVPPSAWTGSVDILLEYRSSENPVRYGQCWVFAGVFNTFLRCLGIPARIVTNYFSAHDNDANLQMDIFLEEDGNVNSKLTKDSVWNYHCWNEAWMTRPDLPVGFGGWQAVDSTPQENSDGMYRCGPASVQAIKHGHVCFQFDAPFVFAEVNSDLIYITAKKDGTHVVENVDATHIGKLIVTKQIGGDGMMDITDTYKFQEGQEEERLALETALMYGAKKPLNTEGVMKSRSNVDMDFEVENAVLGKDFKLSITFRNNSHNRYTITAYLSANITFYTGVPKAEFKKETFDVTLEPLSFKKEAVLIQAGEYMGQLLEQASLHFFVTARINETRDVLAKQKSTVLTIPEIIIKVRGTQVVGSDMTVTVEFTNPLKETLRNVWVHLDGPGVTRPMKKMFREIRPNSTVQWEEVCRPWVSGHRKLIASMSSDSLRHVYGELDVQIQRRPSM
Source text: Kinetische Messung von FXIII in Plasmen
Substratpeptid: Abz-Asn-Glu(CAD-DNP)-Glu-Gln-Val-Ser-Pro-Leu-Thr-Leu-Leu-Lys (2)
Die Substratsequenz Asn-Gln-Glu-Gln-Val-Ser-Pro-Leu-Thr-Leu-Leu-Lys ist einem natürlichen Substrat des FXIII entnommen und wurde bereits zur kinetischen Messungen von FXIII in der Literatur beschrieben (Kärpäti L. et al., Clin Chem., 46:12, 2000, 1946-55). Durch die erfindungsgemäße Modifikation dieses Peptides kann eine kinetische Messung in Plasmen durchgeführt werden (unterer Graph in Fig. 3). Die Messung wurde in diesem speziellen Fall wie folgt durchgeführt.

[1] = target: T2, gereinigte rekombinante humane Transglutaminase 2 (Homo sapiens, UniProt P21980); assay: Selectivity of measurement of different transglutaminases, 2. Ansatz (Beispiel 4); conditions: substrate 50 µM, rhHis6TG2 0,25 µM, 6 % DMSO, Exc. 310 nm, Em. 427 nm, 20 min
T2 construct: His6
T2 sequence (P21980 1-687): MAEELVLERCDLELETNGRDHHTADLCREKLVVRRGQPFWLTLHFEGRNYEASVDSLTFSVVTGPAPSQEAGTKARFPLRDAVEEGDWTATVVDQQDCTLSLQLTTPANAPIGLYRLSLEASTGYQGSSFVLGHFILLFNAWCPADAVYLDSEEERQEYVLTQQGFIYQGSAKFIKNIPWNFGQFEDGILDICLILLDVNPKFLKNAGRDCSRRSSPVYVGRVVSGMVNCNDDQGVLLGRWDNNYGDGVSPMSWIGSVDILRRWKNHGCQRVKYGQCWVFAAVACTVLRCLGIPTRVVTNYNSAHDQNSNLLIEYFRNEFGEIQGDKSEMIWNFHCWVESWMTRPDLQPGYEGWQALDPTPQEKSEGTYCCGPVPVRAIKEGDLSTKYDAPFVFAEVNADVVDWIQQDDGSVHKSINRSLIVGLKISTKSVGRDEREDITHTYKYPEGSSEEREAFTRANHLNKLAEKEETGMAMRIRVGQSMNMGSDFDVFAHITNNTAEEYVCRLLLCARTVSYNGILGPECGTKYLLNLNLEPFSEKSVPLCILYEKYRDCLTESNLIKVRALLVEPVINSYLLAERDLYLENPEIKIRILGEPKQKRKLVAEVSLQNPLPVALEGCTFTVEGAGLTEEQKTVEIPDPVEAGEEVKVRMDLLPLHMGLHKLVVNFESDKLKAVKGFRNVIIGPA
Source text: (§1) Selektivität der Messungen verschiedener Transglutaminasen
2. Ansatz: Abz-Asn-Glu(CAD-DNP)-Glu-Gln-Val-Ser-Pro-Leu-Thr-Leu-Leu-Lys (2), Transglutaminase: gereinigte rekombinante humane Transglutaminase 2

Faktor XIII [2] = target: T3, Faktor XIII (Homo sapiens, UniProt P00488); assay: Comparison of fluorescence-labelled transglutaminase peptide substrates, kinetic measurement (Beispiel 5); conditions: 900 µl thrombin-containing 50 µM peptide solution + 100 µl Humanplasma
T3 construct: 100 µl humanem Plasma (durch Thrombin aktiviert); from tissue; host or cells: human plasma
T3 sequence (P00488 39-732): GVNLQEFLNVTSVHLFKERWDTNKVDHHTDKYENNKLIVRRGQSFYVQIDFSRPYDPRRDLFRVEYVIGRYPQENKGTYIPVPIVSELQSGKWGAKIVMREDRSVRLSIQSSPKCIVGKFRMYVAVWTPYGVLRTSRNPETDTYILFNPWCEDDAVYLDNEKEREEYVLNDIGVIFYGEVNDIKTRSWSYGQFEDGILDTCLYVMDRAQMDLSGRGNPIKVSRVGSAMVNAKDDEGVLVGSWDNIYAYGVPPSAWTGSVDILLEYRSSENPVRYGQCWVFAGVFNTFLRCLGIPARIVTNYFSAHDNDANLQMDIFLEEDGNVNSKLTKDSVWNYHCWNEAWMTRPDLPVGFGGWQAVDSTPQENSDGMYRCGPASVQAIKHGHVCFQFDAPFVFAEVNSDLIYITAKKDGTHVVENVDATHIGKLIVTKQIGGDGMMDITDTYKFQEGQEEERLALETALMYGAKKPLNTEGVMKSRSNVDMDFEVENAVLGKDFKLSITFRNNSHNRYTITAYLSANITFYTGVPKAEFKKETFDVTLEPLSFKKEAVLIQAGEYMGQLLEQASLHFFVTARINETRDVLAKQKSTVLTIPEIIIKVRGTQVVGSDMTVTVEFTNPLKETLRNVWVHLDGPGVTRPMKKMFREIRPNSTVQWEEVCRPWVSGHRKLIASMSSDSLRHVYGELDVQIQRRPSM
Experimental: Vergleich von Transglutaminasepeptidsubstraten
Für den Vergleich verschiedener mit fluoreszierenden Gruppen markierter Transglutaminasepeptidsubstrate wurden kinetische Messungen unter identischen Bedingungen durchgeführt. Dazu wurden zu 900 µl einer thrombinhaltigen 50 µM Lösung des Peptids 100 µl Humanplasma zugesetzt. Diese Bedingungen entsprechen denen, die bei heutzutage üblichen Faktor XIII - Messungen (wie bei dem Marktführer: Berichrom) zum Einsatz kommen. […] Auch die Verwendung von Abz als Fluorophor (Abz-Ahx-Glu(CAD-DNP)-Gln-Ile-Val, (Parameswaran et al.,
Um die Substrateigenschaften gegenüber den Substraten des Standes der Technik zu verbessern und somit klinisch relevante Messungen zu ermöglichen, wurde ausgehend von Verbindung 1 durch routinemäßiges Experimentieren das Peptidrückgrat so verändert, dass ein Substrat entstand, das durch FXIII schneller umgesetzt werden sollte (DNS-Ahx-Glu(CAD-DNP)-Glu-Gln-Val-Ser-Pro-Leu-Thr-Leu-Leu-Lys, 2).
Gegenüber dem Peptid, das in der Literatur (Kärpäti et al.) beschrieben wird, ist die Verbindung 2 um eine Aminosäure am N-Terminus verkürzt. Dahinter stand die Absicht, die im Stand der Technik bekannte und oben beschriebene fluorogene Teilstruktur zu erhalten. Es ist aber bekannt, dass gerade die Aminsäuren, die der Bindungsstelle von Enzymen direkt benachbart sind, besonders großen Einfluss auf die Substrateigenschaften von Peptiden, bzw. Proteinen haben. Deshalb wurde in einer weiteren Modifikation von Verbindung 1 die Verbindung 3 hergestellt. (DNS-Ahx-Asn-Glu(CAD-DNP)-Glu-Gln-Val-Ser-Pro-Leu-Thr-Leu-Leu-Lys, 3).
Beispielhaft wird dies im Vergleich in Fig. 6 anhand der Reaktion von 100 µl humanem Plasma (durch Thrombin aktiviert) und einer 50 µM Lösung des Peptides Abz-Asn-Glu(CAD-DNP)-Glu-Gln-Val-Ser-Pro-Leu-Thr-Leu-Leu-Lys (Verbindung 2)) gezeigt. Dem Vergleich der Strukturen und der Fluoreszenzdaten ist zu entnehmen, dass diese Wirkung auch für andere Transglutaminasen und andere Peptide Gültigkeit hat.

Faktor XIII [3] = target: T4, Faktor XIII (Homo sapiens, UniProt P00488); assay: Selectivity of measurement of different transglutaminases, 1. Ansatz (Beispiel 4); conditions: substrate 50 µM, 100 µl Citratplasma, 6 % DMSO, Exc. 310 nm, Em. 427 nm, 20 min
T4 construct: 100 µl Citratplasma; from tissue; host or cells: citrate plasma
T4 sequence (P00488 1-732): T1 sequence (P00488 1-732)
Source text: as §1
1. Ansatz: Substratpeptid: Abz-Ala-Pro-Glu(CAD-DNP)-Gln-Glu-Ala (3), Transglutaminase: Faktor XIII

2-Aminobenzoyl-L-asparaainyl-N^δ-[N-(2,4-dinitrophenyl)1-5-aminopentyl]-L-glutaminyl-L-glutamyl-L-glutaminyl-L-valinyl-L-serinyl-L-prolinyl-L-leucinyl-L-threoninyl-L-leucinyl-L-leucin-L-lysin [Verbindung 2]
Signal (Fluoreszenzänderung) (FXIII): Signal zusätzlich verstärkt
Anstieg der Fluoreszenz [1]: Ergebnis: kein Anstieg der Fluoreszenz
Steigerung der Fluoreszenz (Faktor XIII [2]): wesentliche Verbesserung der Fluoreszenzsteigerung

CC[C@H](C)[C@H](NC(=O)[C@H](CCC(N)=O)NC(=O)[C@H](CCC(=O)NCCCCCNc1ccc([N+](=O)[O-])cc1[N+](=O)[O-])NC(=O)CCCCCNC(=O)c1ccccc1N)C(=O)N[C@H](C(=O)O)C(C)C [Abz-Ahx-Glu(CAD-DNP)-Gln-Ile-Val] (H-[2Abz][Ahx]E(X1)QIV-OH)
Steigerung der Fluoreszenz (Faktor XIII [2]): keine messbare Steigerung der Fluoreszenz

C[C@H](NC(=O)[C@H](CCC(=O)O)NC(=O)[C@H](CCC(N)=O)NC(=O)[C@H](CCC(=O)NCCCCCNc1ccc([N+](=O)[O-])cc1[N+](=O)[O-])NC(=O)[C@@H]1CCCN1C(=O)[C@H](C)NC(=O)c1ccccc1N)C(=O)O [Verbindung 3] (H-[2Abz]APE(X1)QEA-OH)
Anstieg der Fluoreszenz (Faktor XIII [3]): Ergebnis: kein Anstieg der Fluoreszenz

DNS-Ahx-Asn-Glu(CAD-DNP)-Glu-Gln-Val-Ser-Pro-Leu-Thr-Leu-Leu-Lys
Steigerung der Fluoreszenz (Faktor XIII [2]): nicht zu dem gewünschten Ergebnis

DNS-Ahx-Gln(CAD-DNP)-Glu-lle-Val-OH [Verbindung 1]
Steigerung der Fluoreszenz (Faktor XIII [2]): keine messbare Steigerung der Fluoreszenz

DNS-Ahx-Glu(CAD-DNP)-Glu-Gln-Val-Ser-Pro-Leu-Thr-Leu-Leu-Lys
Steigerung der Fluoreszenz (Faktor XIII [2]): nicht zu einer Verbesserung
